Experimental data as given in ChEMBL document CHEMBL4229385, “Study of the structure-activity relationship of polymyxin analogues” (2018).
Values after ≈ are worked out from the molar mass of the structure shown. Where a SMILES comes first, the peptide text is derived from it. Bridges are numbered along the chain shown (N, C = ends). [ ]: non-standard residue; d: D form. The star is where a group is joined. Benzoyl(4-Ph) = O=C(c1ccc(-c2ccccc2)cc1)*; Bip = N[C@@H](Cc1ccc(-c2ccccc2)cc1)C(=O)O; Octanoyl = CCCCCCCC(=O)*; Dab = NCC[C@H](N)C(=O)O

Assays:
Format in all cases: functional
[1] = tested on: Pseudomonas aeruginosa; assay: Antibacterial activity against Pseudomonas aeruginosa PAO1 by agar dilution method
[2] = tested on: Pseudomonas aeruginosa; assay: Antibacterial activity against amikacin/imipenem-resistant Pseudomonas aeruginosa KUB2703 by agar dilution method
[3] = tested on: Pseudomonas aeruginosa; assay: Antibacterial activity against amikacin/ciprofloxacin-resistant Pseudomonas aeruginosa KUB2704 by agar dilution method
[4] = tested on: Pseudomonas aeruginosa; assay: Antibacterial activity against multidrug-resistant Pseudomonas aeruginosa KUB2705 by agar dilution method
[5] = tested on: Pseudomonas aeruginosa; assay: Antibacterial activity against Pseudomonas aeruginosa E-2 by agar dilution method

## C[C@@H](O)[C@@H]1NC(=O)[C@H](CCN)NC(=O)[C@H](CCN)NC(=O)[C@H](Cc2ccccc2)NC(=O)[C@@H](Cc2ccc(-c3ccccc3)cc2)NC(=O)[C@H](CCN)NC(=O)[C@@H](NC(=O)[C@H](CCN)NC(=O)[C@@H](NC(=O)[C@H](CCN)NC(=O)c2ccc(-c3ccccc3)cc2)[C@@H](C)O)CCNC1=O
[1]
  MIC: 16 µg/mL (≈ 11.8 µM)
[2]
  MIC: 16 µg/mL (≈ 11.8 µM)
[3]
  MIC: 16 µg/mL (≈ 11.8 µM)
[4]
  MIC: 16 µg/mL (≈ 11.8 µM)
[5]
  MIC: 16 µg/mL (≈ 11.8 µM)

## C[C@@H](O)[C@@H]1NC(=O)[C@H](CCN)NC(=O)[C@H](CCN)NC(=O)[C@H](Cc2ccc(-c3ccccc3)cc2)NC(=O)[C@@H](Cc2ccccc2)NC(=O)[C@H](CCN)NC(=O)[C@@H](NC(=O)[C@H](CCN)NC(=O)[C@@H](NC(=O)[C@H](CCN)NC(=O)c2ccccc2)[C@@H](C)O)CCNC1=O
[1]
  MIC: 8 µg/mL (≈ 6.26 µM)
[2]
  MIC: 8 µg/mL (≈ 6.26 µM)
[3]
  MIC: 8 µg/mL (≈ 6.26 µM)
[4]
  MIC: 8 µg/mL (≈ 6.26 µM)
[5]
  MIC: 16 µg/mL (≈ 12.5 µM)

## CCCCCCCC(=O)N[C@@H](CCN(C)C)C(=O)N[C@H](C(=O)N[C@@H](CCN)C(=O)N[C@H]1CCNC(=O)[C@H]([C@@H](C)O)NC(=O)[C@H](CCN)NC(=O)[C@H](CCN)NC(=O)[C@H](CC(C)C)NC(=O)[C@@H](CC(C)C)NC(=O)[C@H](CCN)NC1=O)[C@@H](C)O
[1]
  MIC: 8 µg/mL (≈ 6.76 µM)
[2]
  MIC: > 16 µg/mL
[3]
  MIC: 8 µg/mL (≈ 6.76 µM)
[4]
  MIC: 4 µg/mL (≈ 3.38 µM)
[5]
  MIC: 4 µg/mL (≈ 3.38 µM)

## C[C@@H](O)[C@@H]1NC(=O)[C@H](CCN)NC(=O)[C@H](CCN)NC(=O)[C@H](Cc2ccccc2)NC(=O)[C@@H](Cc2ccccc2)NC(=O)[C@H](CCN)NC(=O)[C@@H](NC(=O)[C@H](CCN)NC(=O)[C@@H](NC(=O)[C@H](CCN)NC(=O)c2ccc(-c3ccccc3)cc2)[C@@H](C)O)CCNC1=O
[1]
  MIC: 4 µg/mL (≈ 3.13 µM)
[2]
  MIC: 8 µg/mL (≈ 6.26 µM)
[3]
  MIC: 8 µg/mL (≈ 6.26 µM)
[4]
  MIC: 8 µg/mL (≈ 6.26 µM)
[5]
  MIC: 8 µg/mL (≈ 6.26 µM)

## CCCCCCCC(=O)N[C@@H](CCN)C(=O)N[C@H](C(=O)N[C@@H](CCN)C(=O)N[C@H]1CCNC(=O)[C@H]([C@@H](C)O)NC(=O)[C@H](CCN(C)C)NC(=O)[C@H](CCN)NC(=O)[C@H](CC(C)C)NC(=O)[C@@H](CC(C)C)NC(=O)[C@H](CCN)NC1=O)[C@@H](C)O
[1]
  MIC: > 16 µg/mL
[2]
  MIC: > 16 µg/mL
[3]
  MIC: > 16 µg/mL
[4]
  MIC: 16 µg/mL (≈ 13.5 µM)
[5]
  MIC: > 16 µg/mL

## C[C@@H](O)[C@@H]1NC(=O)[C@H](CCN)NC(=O)[C@H](CCN)NC(=O)[C@H](Cc2ccccc2)NC(=O)[C@@H](Cc2ccccc2)NC(=O)[C@H](CCN)NC(=O)[C@@H](NC(=O)[C@H](CCN)NC(=O)[C@@H](NC(=O)[C@H](CCN)NC(=O)c2ccccc2)[C@@H](C)O)CCNC1=O
[1]
  MIC: 16 µg/mL (≈ 13.3 µM)
[2]
  MIC: 4 µg/mL (≈ 3.33 µM)
[3]
  MIC: 2 µg/mL (≈ 1.66 µM)
[4]
  MIC: 2 µg/mL (≈ 1.66 µM)
[5]
  MIC: 2 µg/mL (≈ 1.66 µM)

## C[C@@H](O)[C@@H]1NC(=O)[C@H](CCN)NC(=O)[C@H](CCN)NC(=O)[C@H](Cc2ccc(-c3ccccc3)cc2)NC(=O)[C@@H](Cc2ccccc2)NC(=O)[C@H](CCN)NC(=O)[C@@H](NC(=O)[C@H](CCN)NC(=O)[C@@H](NC(=O)[C@H](CCN)NC(=O)c2cccc(-c3ccccc3)c2)[C@@H](C)O)CCNC1=O
[1]
  MIC: 16 µg/mL (≈ 11.8 µM)
[2]
  MIC: > 16 µg/mL
[3]
  MIC: > 16 µg/mL
[4]
  MIC: 16 µg/mL (≈ 11.8 µM)
[5]
  MIC: > 16 µg/mL

## C[C@@H](O)[C@@H]1NC(=O)[C@H](CCN)NC(=O)[C@H](CCN)NC(=O)[C@H](Cc2ccc(-c3ccccc3)cc2)NC(=O)[C@@H](Cc2ccccc2)NC(=O)[C@H](CCN)NC(=O)[C@@H](NC(=O)[C@H](CCN)NC(=O)[C@@H](NC(=O)[C@H](CCN)NC(=O)c2ccc(-c3ccccc3)cc2)[C@@H](C)O)CCNC1=O ({Benzoyl(4-Ph)}-[Dab]T[Dab][Dab][Dab][dF][Bip][Dab][Dab]T; lactam 4-C)
[1]
  MIC: 16 µg/mL (≈ 11.8 µM)
[2]
  MIC: 16 µg/mL (≈ 11.8 µM)
[3]
  MIC: 16 µg/mL (≈ 11.8 µM)
[4]
  MIC: 16 µg/mL (≈ 11.8 µM)
[5]
  MIC: 16 µg/mL (≈ 11.8 µM)

## CCCCCCCC(=O)N[C@@H](CCN)C(=O)N[C@H](C(=O)N[C@@H](CCN)C(=O)N[C@H]1CCNC(=O)[C@H]([C@@H](C)O)NC(=O)[C@H](CCN)NC(=O)[C@H](CCN)NC(=O)[C@H](CC(C)C)NC(=O)[C@@H](CC(C)C)NC(=O)[C@H](CCN(C)C)NC1=O)[C@@H](C)O
[1]
  MIC: > 16 µg/mL
[2]
  MIC: > 16 µg/mL
[3]
  MIC: > 16 µg/mL
[4]
  MIC: 8 µg/mL (≈ 6.76 µM)
[5]
  MIC: > 16 µg/mL

## C[C@@H](O)[C@@H]1NC(=O)[C@H](CCN)NC(=O)[C@H](CCN)NC(=O)[C@H](Cc2ccccc2)NC(=O)[C@@H](Cc2ccc(-c3ccccc3)cc2)NC(=O)[C@H](CCN)NC(=O)[C@@H](NC(=O)[C@H](CCN)NC(=O)[C@@H](NC(=O)[C@H](CCN)NC(=O)c2ccccc2)[C@@H](C)O)CCNC1=O
[1]
  MIC: 4 µg/mL (≈ 3.13 µM)
[2]
  MIC: 8 µg/mL (≈ 6.26 µM)
[3]
  MIC: 8 µg/mL (≈ 6.26 µM)
[4]
  MIC: 8 µg/mL (≈ 6.26 µM)
[5]
  MIC: 8 µg/mL (≈ 6.26 µM)

## CCCCCCCC(=O)N[C@@H](CCN)C(=O)N[C@H](C(=O)N[C@@H](CCN)C(=O)N[C@H]1CCNC(=O)[C@H]([C@@H](C)O)NC(=O)[C@H](CCN)NC(=O)[C@H](CCN(C)C)NC(=O)[C@H](CC(C)C)NC(=O)[C@@H](CC(C)C)NC(=O)[C@H](CCN)NC1=O)[C@@H](C)O
[1]
  MIC: 4 µg/mL (≈ 3.38 µM)
[2]
  MIC: 4 µg/mL (≈ 3.38 µM)
[3]
  MIC: 4 µg/mL (≈ 3.38 µM)
[4]
  MIC: 4 µg/mL (≈ 3.38 µM)
[5]
  MIC: 2 µg/mL (≈ 1.69 µM)

## CCCCC/C=C\C/C=C\CCCCCCCC(=O)N[C@@H](CCN)C(=O)N[C@H](C(=O)N[C@@H](CCN)C(=O)N[C@H]1CCNC(=O)[C@H]([C@@H](C)O)NC(=O)[C@H](CCN)NC(=O)[C@H](CCN)NC(=O)[C@H](CC(C)C)NC(=O)[C@@H](CC(C)C)NC(=O)[C@H](CCN)NC1=O)[C@@H](C)O
[1]
  MIC: > 16 µg/mL
[2]
  MIC: > 16 µg/mL
[3]
  MIC: > 16 µg/mL
[4]
  MIC: > 16 µg/mL
[5]
  MIC: 16 µg/mL (≈ 12.4 µM)

## CCCCCCCCC(CCCCCC)C(=O)N[C@@H](CCN)C(=O)N[C@H](C(=O)N[C@@H](CCN)C(=O)N[C@H]1CCNC(=O)[C@H]([C@@H](C)O)NC(=O)[C@H](CCN)NC(=O)[C@H](CCN)NC(=O)[C@H](CC(C)C)NC(=O)[C@@H](CC(C)C)NC(=O)[C@H](CCN)NC1=O)[C@@H](C)O (stereo not given in full)
[1]
  MIC: > 16 µg/mL
[2]
  MIC: 16 µg/mL (≈ 12.6 µM)
[3]
  MIC: > 16 µg/mL
[4]
  MIC: > 16 µg/mL
[5]
  MIC: 16 µg/mL (≈ 12.6 µM)

## C[C@@H](O)[C@@H]1NC(=O)[C@H](CCN)NC(=O)[C@H](CCN)NC(=O)[C@H](Cc2ccccc2)NC(=O)[C@@H](Cc2ccccc2)NC(=O)[C@H](CCN)NC(=O)[C@@H](NC(=O)[C@H](CCN)NC(=O)[C@@H](NC(=O)[C@H](CCN)NC(=O)c2cccc(-c3ccccc3)c2)[C@@H](C)O)CCNC1=O
[1]
  MIC: 8 µg/mL (≈ 6.26 µM)
[2]
  MIC: 8 µg/mL (≈ 6.26 µM)
[3]
  MIC: 8 µg/mL (≈ 6.26 µM)
[4]
  MIC: 4 µg/mL (≈ 3.13 µM)
[5]
  MIC: 8 µg/mL (≈ 6.26 µM)

## COLISTIN
[1]
  MIC: 4 µg/mL
[2]
  MIC: 2 µg/mL
[3]
  MIC: 4 µg/mL
[4]
  MIC: 4 µg/mL
[5]
  MIC: 2 µg/mL

## C[C@@H](O)[C@@H]1NC(=O)[C@H](CCN)NC(=O)[C@H](CCN)NC(=O)[C@H](Cc2ccccc2)NC(=O)[C@@H](Cc2ccc(-c3ccccc3)cc2)NC(=O)[C@H](CCN)NC(=O)[C@@H](NC(=O)[C@H](CCN)NC(=O)[C@@H](NC(=O)[C@H](CCN)NC(=O)c2cccc(-c3ccccc3)c2)[C@@H](C)O)CCNC1=O
[1]
  MIC: 16 µg/mL (≈ 11.8 µM)
[2]
  MIC: 16 µg/mL (≈ 11.8 µM)
[3]
  MIC: 16 µg/mL (≈ 11.8 µM)
[4]
  MIC: 16 µg/mL (≈ 11.8 µM)
[5]
  MIC: > 16 µg/mL

## CCCCCCCC(=O)N[C@@H](CCN)C(=O)N[C@H](C(=O)N[C@@H](CCN(C)C)C(=O)N[C@H]1CCNC(=O)[C@H]([C@@H](C)O)NC(=O)[C@H](CCN)NC(=O)[C@H](CCN)NC(=O)[C@H](CC(C)C)NC(=O)[C@@H](CC(C)C)NC(=O)[C@H](CCN)NC1=O)[C@@H](C)O
[1]
  MIC: 4 µg/mL (≈ 3.38 µM)
[2]
  MIC: 4 µg/mL (≈ 3.38 µM)
[3]
  MIC: 4 µg/mL (≈ 3.38 µM)
[4]
  MIC: 4 µg/mL (≈ 3.38 µM)
[5]
  MIC: 2 µg/mL (≈ 1.69 µM)

## CCCCCCCC(=O)N[C@@H](CCN)C(=O)N[C@H](C(=O)N[C@@H](CCN)C(=O)N[C@H]1CCNC(=O)[C@H]([C@@H](C)O)NC(=O)[C@H](CCN)NC(=O)[C@H](CCN)NC(=O)[C@H](CC(C)C)NC(=O)[C@@H](CC(C)C)NC(=O)[C@H](CCN)NC1=O)[C@@H](C)O (Octanoyl-[Dab]T[Dab][Dab][Dab][dL]L[Dab][Dab]T; lactam 4-C)
[1]
  MIC: 8 µg/mL (≈ 6.92 µM)
[2]
  MIC: 16 µg/mL (≈ 13.8 µM)
[3]
  MIC: 8 µg/mL (≈ 6.92 µM)
[4]
  MIC: 4 µg/mL (≈ 3.46 µM)
[5]
  MIC: 4 µg/mL (≈ 3.46 µM)

## CCCCCCCCC(CCCCCCCC)C(=O)N[C@@H](CCN)C(=O)N[C@H](C(=O)N[C@@H](CCN)C(=O)N[C@H]1CCNC(=O)[C@H]([C@@H](C)O)NC(=O)[C@H](CCN)NC(=O)[C@H](CCN)NC(=O)[C@H](CC(C)C)NC(=O)[C@@H](CC(C)C)NC(=O)[C@H](CCN)NC1=O)[C@@H](C)O
[1]
  MIC: > 16 µg/mL
[2]
  MIC: > 16 µg/mL
[3]
  MIC: > 16 µg/mL
[4]
  MIC: > 16 µg/mL
[5]
  MIC: > 16 µg/mL
